Reference: ChEMBL document CHEMBL5518247 (J Med Chem, 2024)

Columns and labels:
[1] = Inhibition of recombinant PKCgamma (unknown origin) expressed in baculovirus infected in Sf9 cells using biotin-Ahx-peptide as substrate; parameters: species or system Homo sapiens
[2] = Oral bioavailability in ICR mouse at 20 mg/kg measured up to 48 hrs by LC-MS/MS analysis; format: ADME, organism-based; details: in vivo
[3] = Oral absorption in C57BL/6J mouse at 20 mg/kg measured up to 48 hrs by LC-MS/MS analysis; format: ADME, organism-based; details: in vivo

Compound `Cc1n[nH]c2ccc(-c3cncc(OC[C@H](N)Cc4c[nH]c5ccccc45)c3)cc12` has an IC50 [1] of 1400 nM.

With `C=CC(=O)Nc1ccc2[nH]c(=O)n(C3CCN(Cc4ccc(-c5nc6cc[nH]c(=O)c6cc5-c5ccccc5)cc4)CC3)c2c1` [Borussertib] the bioavailability [2] was under 5% and the Fa at 48 h [3] was 39.6%.
